Measured values as given in patent publication US8871756B2 (Hoffmann-La Roche Inc., priority 2011, dated 2014).
Where a name gives a salt, the structure may show the parent alone.

Test system: RSV Long strain
Experiment: Viral cytopathic effect (CPE) assay, anti-RSV activity
Format: cell-based, Respiratory Syncytial Virus
Conditions: human respiratory syncytial virus, 144 h, RSV Long strain (ATCC); cell viability after 6 days, Cell Counting kit-8
Description: Viral cytopathic effect (CPE) assay: To measure anti-RSV activity of compounds, 96-well plates are seeded with 6×10^3 cells per well in Dulbecco's modified Eagle's medium (DMEM) containing 10% fetal bovine serum (FBS). Cells are infected the next day with sufficient RSV Long strain (ATCC) to produce an approximately 80-90% cytopathic effect after 6 days, in the presence of serial half-log diluted compound in a total volume of 200 μL per well. The viability of cells is assessed after 6 days using Cell Counting kit-8 (Dojindo Molecular Technologies). The absorbance at 450 nm and referenced at 630 nm is measured to determine 50% effective concentration (EC50).
The compounds of the present invention were tested for their anti-RSV activity, and the activation as described herein. The Examples were tested in the above assay and found to have EC50 of about 0.0001 μM to about 10 μM.

Row | SMILES | EC50 [µM]
1 | Cc1ccc2nc(N3CCS(=O)(=O)c4ccccc4C3)cc(N3CCN(C)CC3)c2c1 [Example 5-6, 4-[6-Methyl-4-(4-methylpiperazin-1-yl)quinolin-2-yl]-2,3,4,5-tetrahydro-1,4-benzothiazepine 1,1-dioxide] | 2.06
2 | N=C(N)NCCNc1cc(N2CCCc3ccccc3C2)nc2ccccc12 [Example 125, 1-(2-{[2-(1,3,4,5-Tetrahydro-2H-2-benzazepin-2-yl)quinolin-4-yl]amino}ethyl)guanidine trifluoroacetate] | 2.52
3 | Cc1cc2c(NCC3(N)COC3)cc(N3CCS(=O)(=O)c4ccccc4C3)nc2c(F)c1F [Example 5-10, N-[(3-Aminooxetan-3-yl)methyl]-2-(1,1-dioxido-2,3-dihydro-1,4-benzothiazepin-4(5H)-yl)-7,8-difluoro-6-methylquinolin-4-amine] | 0.397
4 | CCNC(=O)Nc1cc(N2CCS(=O)(=O)c3ccccc3C2)nc2ccc(C)cc12 [Example 50-2, 1-[2-(1,1-Dioxido-2,3-dihydro-1,4-benzothiazepin-4(5H)-yl)-6-methylquinolin-4-yl]-3-ethylurea] | 2.42
5 | NC1=NCC(CNc2cc(N3CCCc4ccccc4C3)nc3ccccc23)O1 (stereo not shown) [Example 126-1, N-[(2-Amino-4,5-dihydro-1,3-oxazol-5-yl)methyl]-2-(1,3,4,5-tetrahydro-2H-2-benzazepin-2-yl)quinolin-4-amine trifluoroacetate] | 0.79
6 | Cc1ccc2nc(N3CCS(=O)(=O)c4ccccc4C3)cc(NC(C)CC(N)=O)c2c1 (stereo not shown) [Example 36-2, 3-{[2-(1,1-Dioxido-2,3-dihydro-1,4-benzothiazepin-4(5H)-yl)-6-methylquinolin-4-yl]amino}butanamide] | 1.47
7 | Cc1ccc2c(c1)S(=O)(=O)CCN(c1cc(NCC3(N)COC3)c3ccccc3n1)C2 [Example 2-4, N-[(3-Aminooxetan-3-yl)methyl]-2-(8-methyl-1,1-dioxido-2,3-dihydro-1,4-benzothiazepin-4(5H)-yl)-quinolin-4-amine] | 0.081
8 | NCCNc1cc(N2CCCc3ccccc3C2)nc2cccc(Cl)c12 [Example 119, N-[5-Chloro-2-(1,3,4,5-tetrahydro-2H-2-benzazepin-2-yl)quinolin-4-yl]ethane-1,2-diamine] | 6.66
9 | CO[C@@H]1CN(c2cc(N3CCS(=O)(=O)c4ccccc4C3)nc3ccc(C)cc23)C[C@H]1N (relative stereo) [Example 8-3, trans-1-[2-(1,1-Dioxido-2,3-dihydro-1,4-benzothiazepin-4(5H)-yl)-6-methylquinolin-4-yl]-4-methoxypyrrolidin-3-amine] | 0.9
10 | CC(=O)Nc1cc(N2CCS(=O)(=O)c3ccccc3C2)nc2ccc(C)cc12 [Example 3-60, N-[2-(1,1-Dioxido-2,3-dihydro-1,4-benzothiazepin-4(5H)-yl)-6-methylquinolin-4-yl]acetamide] | 0.617
11 | Cc1cc2c(NCCN)cc(N3CCS(=O)(=O)c4ccccc4C3)nc2c(F)c1F [Example 9-25, N-[2-(1,1-Dioxido-2,3-dihydro-1,4-benzothiazepin-4(5H)-yl)-7,8-difluoro-6-methylquinolin-4-yl]ethane-1,2-diamine] | 4.08
12 | OCc1cc(N2CCCc3ccccc3C2)nc2ccccc12 [Example 129, [2-(1,3,4,5-Tetrahydro-2H-2-benzazepin-2-yl)quinolin-4-yl]methanol] | 7.88
13 | Cc1ccc2nc(N3CCS(=O)(=O)c4ccccc4C3)cc(N(C)CCN)c2c1 [Example 21-2, N-[2-(1,1-Dioxido-2,3-dihydro-1,4-benzothiazepin-4(5H)-yl)-6-methylquinolin-4-yl]-N-methylethane-1,2-diamine] | 0.161
14 | Cc1ccc2nc(N3CCS(=O)(=O)c4ccccc4C3)cc(N3CC4CC3C4N)c2c1 (stereo not shown) [Example 19-8, 2-[2-(1,1-Dioxido-2,3-dihydro-1,4-benzothiazepin-4(5H)-yl)-6-methylquinolin-4-yl]-2-azabicyclo[2.1.1]hexan-5-amine] | 2.75
15 | Cc1ccc2nc(N3CCS(=O)(=O)c4ccccc4C3)cc(NCCNc3ccccn3)c2c1 [Example 46, N-[2-(1,1-Dioxido-2,3-dihydro-1,4-benzothiazepin-4(5H)-yl)-6-methylquinolin-4-yl]-N′-(pyridin-2-yl)ethane-1,2-diamine] | 0.682
16 | NCC(F)(F)CNc1cc(N2CCS(=O)(=O)c3ccccc3C2)nc2ccc(Cl)cc12 [Example 3-20, N-[6-Chloro-2-(1,1-dioxido-2,3-dihydro-1,4-benzothiazepin-4(5H)-yl)quinolin-4-yl]-2,2-difluoropropane-1,3-diamine] | 0.507
17 | CNCCNc1cc(N2CCCc3ccccc3C2)nc2ccccc12 [Example 118-14, N-Methyl-N′-[2-(1,3,4,5-tetrahydro-2H-2-benzazepin-2-yl)quinolin-4-yl]ethane-1,2-diamine] | 0.616

The next compounds have a lower EC50 than those just listed; values first:

Row | EC50 [µM] | SMILES
18 | 0.023 | Cc1ccc2nc(N3CC[S+]([O-])c4ccccc4C3)nc(NCC(F)(F)CN)c2c1 (stereo not shown) [Example 56-2, 2,2-Difluoro-N-[6-methyl-2-(1-oxido-2,3-dihydro-1,4-benzothiazepin-4(5H)-yl)quinazolin-4-yl]propane-1,3-diamine]
19 | 0.018 | NC1(CNc2nc(N3CC[S+]([O-])c4ccccc4C3)nc3ccccc23)COC1 (stereo not shown) [Example 57-2, N-[(3-Aminooxetan-3-yl)methyl]-2-(1-oxido-2,3-dihydro-1,4-benzothiazepin-4(5H)-yl)quinazolin-4-amine]
20 | 0.008 | NCCNc1cc(N2CCS(=O)(=O)c3ccccc3C2)nc2ccc(N)cc12 [Example 85, N^˜4^˜-(2-Aminoethyl)-2-(1,1-dioxido-2,3-dihydro-1,4-benzothiazepin-4(5H)-yl)quinoline-4,6-diamine]
21 | 0.011 | Cc1ccc2nc(N3CC[S+]([O-])c4ccccc4C3)cc(NCCN)c2c1 (stereo not shown) [Example 18-10, N-[6-Methyl-2-(1-oxido-2,3-dihydro-1,4-benzothiazepin-4(5H)-yl)quinolin-4-yl]ethane-1,2-diamine]
22 | 0.004 | Cc1ccc2nc(N3CCS(=O)(=O)c4c(F)cccc4C3)cc(NCC3(N)COC3)c2c1 [Example 1-4, N-[(3-Aminooxetan-3-yl)methyl]-2-(9-fluoro-1,1-dioxido-2,3-dihydro-1,4-benzothiazepin-4(5H)-yl)-6-methylquinolin-4-amine]
23 | 0.009 | Cc1ccc2nc(N3CCS(=O)(=O)c4ccccc4C3)nc(NC3CNC3)c2c1 [Example 93-2, N-(Azetidin-3-yl)-6-methyl-2-(1,1-dioxido-2,3-dihydro-1,4-benzothiazepin-4(5H)-yl)quinazolin-4-amine]
24 | 0.039 | Cc1ccc2nc(N3CCS(=O)(=O)c4ccccc4C3)cc(NC(=O)CN)c2c1 [Example 40-1, N-[2-(1,1-Dioxido-2,3-dihydro-1,4-benzothiazepin-4(5H)-yl)-6-methylquinolin-4-yl]glycinamide]
25 | 0.056 | NCCCNc1cc(N2CCS(=O)(=O)c3ccccc3C2)nc2ccc(C3CC3)cc12 [Example 51, N-[6-Cyclopropyl-2-(1,1-dioxido-2,3-dihydro-1,4-benzothiazepin-4(5H)-yl)quinolin-4-yl]propane-1,3-diamine]
26 | 0.019 | Cc1ccc2nc(N3CCS(=O)(=O)c4ccccc4C3)cc(NCC(O)CO)c2c1 (stereo not shown) [Example 32-1, 3-{[2-(1,1-Dioxido-2,3-dihydro-1,4-benzothiazepin-4(5H)-yl)-6-methylquinolin-4-yl]amino}propane-1,2-diol]
27 | 0.002 | NCC1(CNc2cc(N3CCS(=O)(=O)c4ccccc4C3)nc3ccc(CO)cc23)COC1 [Example 106, [4-({[3-(Aminomethyl)oxetan-3-yl]methyl}amino)-2-(1,1-dioxido-2,3-dihydro-1,4-benzothiazepin-4(5H)-yl)quinolin-6-yl]methanol]
28 | 0.002 | Cc1ccc2nc(N3CCS(=O)(=O)c4ccccc4C3)cc(N3CCC(N)C3)c2c1 (stereo not shown) [Example 25, 1-[2-(1,1-Dioxido-2,3-dihydro-1,4-benzothiazepin-4(5H)-yl)-6-methylquinolin-4-yl]pyrrolidin-3-amine]
29 | 0.005 | NC1(CNc2cc(N3CCS(=O)(=O)c4ccccc4C3)nc3ccncc23)COC1 [Example 2-10, N-[(3-Aminooxetan-3-yl)methyl]-2-(1,1-dioxido-2,3-dihydro-1,4-benzothiazepin-4(5H)-yl)-1,6-naphthyridin-4-amine]
30 | 0.018 | Cc1ccc2nc(N3CCS(=O)(=O)c4ccccc4C3)nc(NC3CCNC3)c2c1 (stereo not shown) [Example 135-2, 2-(1,1-Dioxido-2,3-dihydro-1,4-benzothiazepin-4(5H)-yl)-6-methyl-N-(pyrrolidin-3-yl)quinazolin-4-amine]
31 | 0.023 | NC1(CNc2cc(N3CCS(=O)(=O)c4ccccc4C3)nc3ccccc23)COC1 [Example 3-48, N-[(3-Aminooxetan-3-yl)methyl]-2-(1,1-dioxido-2,3-dihydro-1,4-benzothiazepin-4(5H)-yl)quinolin-4-amine]
32 | 0.0439 | Cc1ccc2nc(N3CCS(=O)(=O)c4ccccc4C3)cc(NCCO)c2c1 [Example 3-38, 2-{[2-(1,1-Dioxido-2,3-dihydro-1,4-benzothiazepin-4(5H)-yl)-6-methylquinolin-4-yl]amino}ethanol]
33 | 0.007 | Cc1ccc2nc(N3CC[S+]([O-])c4ccccc4C3)nc(NCCN)c2c1 (stereo not shown) [Example 89, N-[6-Methyl-2-(1-oxido-2,3-dihydro-1,4-benzothiazepin-4(5H)-yl)quinazolin-4-yl]ethane-1,2-diamine]
34 | 0.003 | NC1CCN(c2cc(N3CCS(=O)(=O)c4ccccc4C3)nc3ccncc23)C1 (stereo not shown) [Example 9-28, 1-[2-(1,1-Dioxido-2,3-dihydro-1,4-benzothiazepin-4(5H)-yl)-1,6-naphthyridin-4-yl]pyrrolidin-3-amine]
